system: PMS1; assay: Mini-Gene Reporter Assay—PMS1 (firefly luciferase mini-gene reporter transiently transfected into HEK293 cells); format: cell-based; details: Homo sapiens; at 5 uM; mini-gene firefly luciferase reporter in HEK293 cells; read-out: PMS1 % Effect at 5 uM
In short: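 HEK293 cells transiently transfected with a mini-gene construct (skipped exon with flanking introns/exons fused to firefly luciferase, pcDNA3.1) are incubated with compounds in duplicate. Exon inclusion raises luminescence; EC50 fitted by Levenberg-Marquardt; effect also scored at 5 μM.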

| SMILES | activation at 5 µM [%] |
| --- | --- |
| CCOc1cc2nn(C)cc2cc1C(=O)Nc1cnc(N2CCNCC2)nc1 [Compound 477] | 50 to 75 |
| CCOc1cc2nn(C)cc2cc1C(=O)Nc1cnc(N(C)C2CCNCC2)nc1 [Compound 478] | 50 to 75 |
| CCOc1cc2nn(C)cc2cc1C(=O)Nc1cnc(N2CC(N)C2)nc1 [Compound 479] | < 50 |
| CCOc1cc2nn(C)cc2cc1C(=O)Nc1cnc(N2CCN[C@@H](C)C2)nc1 [Compound 480] | > 75 |
| CCOc1cc2nn(C)cc2cc1C(=O)Nc1cnc(N2CCC(N)CC2)nc1 [Compound 481] | < 50 |
| CCOc1cc2nn(C)cc2cc1C(=O)Nc1cnc(NCC2CCCNC2)nc1 (stereo not shown) [Compound 483] | < 50 |
| CCOc1cc2nn(C)cc2cc1C(=O)Nc1cnc(N(C)CCNC)nc1 [Compound 484] | < 50 |
| CCOc1cc2nn(C)cc2cc1C(=O)Nc1cnc(N2CCCNCC2)nc1 [Compound 485] | < 50 |
| CCOc1cc2nn(C)cc2cc1C(=O)Nc1cnc(N2CCNC(C)C2)nc1 (stereo not shown) [Compound 487] | > 75 |
| CCOc1cn2nc(C)cc2cc1C(=O)Nc1cnc(NCC2(F)CNCCOC2)cn1 (stereo not shown) [Compound 489] | < 50 |
| CCOc1cn2nc(C)cc2cc1C(=O)Nc1cnc(N2CCNC(CC(F)(F)F)C2)cn1 (stereo not shown) [Compound 490] | 50 to 75 |
| CCOc1cn2nc(C)cc2cc1C(=O)Nc1cnc(N2CC3CCC2C2CNCC32)cn1 (stereo not shown) [Compound 492] | 50 to 75 |
| CCOc1cn2nc(C)cc2cc1C(=O)Nc1cnc(NCC2(F)CC(N)C2)cn1 (stereo not shown) [Compound 493] | < 50 |
| CCOc1cn2nc(C)cc2cc1C(=O)Nc1cnc(NC2CCCCC23CCNC3)cn1 (stereo not shown) [Compound 494] | < 50 |
| CCOc1cn2nc(C)cc2cc1C(=O)Nc1cnc(NCC2CNCC23CC3)cn1 (stereo not shown) [Compound 496] | > 75 |
| CCOc1cn2nc(C)cc2cc1C(=O)Nc1cnc(NC2CCC3CC2CN3)cn1 (stereo not shown) [Compound 497] | > 75 |
| CCOc1cn2nc(C)cc2cc1C(=O)Nc1cnc(N2CCCCC3(CCNC3)C2)cn1 (stereo not shown) [Compound 499] | < 50 |
| CCOc1cn2nc(C)cc2cc1C(=O)Nc1cnc(NC2CNCC2(C)C)cn1 (stereo not shown) [Compound 500] | < 50 |
| CCOc1cn2nc(C)cc2cc1C(=O)Nc1cnc(N2CCC(N)(CC)CC2)cn1 [Compound 502] | > 75 |
| CCOc1cn2nc(C)cc2cc1C(=O)Nc1cnc(N2CC(NC)C(C)(C)C2)cn1 (stereo not shown) [Compound 503] | > 75 |
| CCOc1cn2nc(C)cc2cc1C(=O)Nc1cnc(N2CCC(C3(O)CCNCC3)CC2)cn1 [Compound 505] | 50 to 75 |
| CCOc1cn2nc(C)cc2cc1C(=O)Nc1cnc(N2CCC(n3ncc4c3CNC4)CC2)cn1 [Compound 507] | < 50 |
| CCOc1cn2nc(C)cc2cc1C(=O)Nc1cnc(NC2CNCC23CCC3)cn1 (stereo not shown) [Compound 509] | < 50 |
| CCOc1cn2nc(C)cc2cc1C(=O)Nc1cnc(N2CCOC3(CCCNC3)C2)cn1 (stereo not shown) [Compound 510] | < 50 |
| CCOc1cn2nc(C)cc2cc1C(=O)Nc1cnc(NC2CCN(C(=O)CCCNC)CC2)cn1 [Compound 513] | < 50 |
| CCOc1cn2nc(C)cc2cc1C(=O)Nc1cnc(NCC[C@@H]2CCNC2)cn1 [Compound 516] | < 50 |
| CCOc1cn2nc(C)cc2cc1C(=O)Nc1cnc(N2CCC(NCC3CC3)CC2)cn1 [Compound 517] | > 75 |

| SMILES | activation at 5 µM [%] |
| --- | --- |
| CCOc1cn2nc(C)cc2cc1C(=O)Nc1cnc(NC(CNC)Cc2ccccc2)cn1 (stereo not shown) [Compound 518] | < 50 |
| CCOc1cn2nc(C)cc2cc1C(=O)Nc1cnc(N(C)C[C@@H]2CCCCN2)cn1 [Compound 519] | > 75 |
| CCOc1cn2nc(C)cc2cc1C(=O)Nc1cnc(N2CCCC(C)(CN)C2)cn1 (stereo not shown) [Compound 522] | < 50 |
| CCOc1cn2nc(C)cc2cc1C(=O)Nc1cnc(N2CCC(COC3CCNC3)CC2)cn1 (stereo not shown) [Compound 523] | < 50 |
| CCOc1cn2nc(C)cc2cc1C(=O)Nc1cnc(N2CCN(CC3CCCNC3)CC2)cn1 (stereo not shown) [Compound 524] | < 50 |
| CCOc1cn2nc(C)cc2cc1C(=O)Nc1cnc(N2CCCC2CNC)cn1 (stereo not shown) [Compound 525] | 50 to 75 |
| CCOc1cn2nc(C)cc2cc1C(=O)Nc1cnc(N(C)C[C@@H]2CCCN2)cn1 [Compound 526] | > 75 |
| CCOc1cn2nc(C)cc2cc1C(=O)Nc1cnc(N2CCC(CCNC)CC2)cn1 [Compound 527] | < 50 |
| CCOc1cn2nc(C)cc2cc1C(=O)Nc1cnc(NCC2(C)CCNC2)cn1 (stereo not shown) [Compound 528] | < 50 |
| CCOc1cn2nc(C)cc2cc1C(=O)Nc1cnc(N2CCOC3(CCNC3)C2)cn1 (stereo not shown) [Compound 529] | 50 to 75 |
| CCOc1cn2nc(C)cc2cc1C(=O)Nc1cnc(N2CCC3(CCCN3)CC2)cn1 [Compound 530] | > 75 |
| CCOc1cn2nc(C)cc2cc1C(=O)Nc1cnc(NCCNCCOC)cn1 [Compound 531] | < 50 |
| CCOc1cn2nc(C)cc2cc1C(=O)Nc1cnc(NC[C@@H]2CC(F)(F)CN2)cn1 [Compound 532] | < 50 |
| CCOc1cn2nc(C)cc2cc1C(=O)Nc1cnc(N2CC3CNCC(C3)C2)cn1 [Compound 533] | < 50 |
| CCOc1cn2nc(C)cc2cc1C(=O)Nc1cnc(N(C)CC2CCCN2)cn1 (stereo not shown) [Compound 534] | 50 to 75 |
| CCOc1cn2nc(C)cc2cc1C(=O)Nc1cnc(N2CC(N)CC(O)C2)cn1 (stereo not shown) [Compound 535] | > 75 |
| CCOc1cn2nc(C)cc2cc1C(=O)Nc1cnc(NCC2(F)CNC2)cn1 [Compound 536] | < 50 |
| CCOc1cn2nc(C)cc2cc1C(=O)Nc1cnc(NC2COC3(CNC3)C2)cn1 (stereo not shown) [Compound 537] | < 50 |
| CCOc1cn2nc(C)cc2cc1C(=O)Nc1cnc(N(C)CC2CCNC2)cn1 (stereo not shown) [Compound 538] | 50 to 75 |
| CCOc1cn2nc(C)cc2cc1C(=O)Nc1cnc(NC[C@@H]2C[C@H](F)CN2)cn1 [Compound 539] | < 50 |
| CCCC[C@H]1CN(c2cnc(NC(=O)c3cc4cc(C)nn4cc3OCC)cn2)CCN1 [Compound 540] | > 75 |
| CCOc1cn2nc(C)cc2cc1C(=O)Nc1cnc(N2CC(N3CCNCC3)C2)cn1 [Compound 541] | < 50 |
| CCOc1cn2nc(C)cc2cc1C(=O)Nc1cnc(N2CCC3(CC2)CNCCO3)cn1 [Compound 542] | < 50 |
| CCOc1cn2nc(C)cc2cc1C(=O)Nc1cnc(N2CCCC(CCN)C2)cn1 (stereo not shown) [Compound 544] | < 50 |
| CCOc1cn2nc(C)cc2cc1C(=O)Nc1cnc(N2CCOC3(CCNCC3)C2)cn1 [Compound 545] | < 50 |
| CCOc1cn2nc(C)cc2cc1C(=O)Nc1cnc(N2CCC(NC)C2)cn1 (stereo not shown) [Compound 546] | > 75 |
| CCOc1cn2nc(C)cc2cc1C(=O)Nc1cnc(N2C[C@H]3CNC[C@H]3C2)cn1 [Compound 547] | > 75 |

| SMILES | activation at 5 µM [%] |
| --- | --- |
| CCOc1cn2nc(C)cc2cc1C(=O)Nc1cnc(N2CC3(CCNCC3)C2)cn1 [Compound 548] | > 75 |
| CCOc1cn2nc(C)cc2cc1C(=O)Nc1cnc(N2C[C@@H]3C[C@H]2CN3)cn1 [Compound 549] | > 75 |
| CCOc1cn2nc(C)cc2cc1C(=O)Nc1cnc(NCC2CCNC2)cn1 (stereo not shown) [Compound 550] | > 75 |
| CCOc1cn2nc(C)cc2cc1C(=O)Nc1cnc(N(C)C2CCNC2)cn1 (stereo not shown) [Compound 551] | > 75 |
| CCOc1cn2nc(C)cc2cc1C(=O)Nc1cnc(NCCNC)cn1 [Compound 552] | > 75 |
| CCOc1cn2nc(C)cc2cc1C(=O)Nc1cnc(N2CCC(NC)CC2)cn1 [Compound 553] | > 75 |
| CCOc1cn2nc(C)cc2cc1C(=O)Nc1cnc(N[C@H]2CCCNC2)cn1 [Compound 554] | > 75 |
| CCOc1cn2nc(C)cc2cc1C(=O)Nc1cnc(NCC2CCNCC2)cn1 [Compound 555] | < 50 |
| CCOc1cn2nc(C)cc2cc1C(=O)Nc1cnc(N2CCC(N)C2)cn1 (stereo not shown) [Compound 556] | > 75 |
| CCOc1cn2nc(C)cc2cc1C(=O)Nc1cnc(N2CCC(N)CC2)cn1 [Compound 557] | > 75 |
| CCOc1cn2nc(C)cc2cc1C(=O)Nc1cnc(N(C)C2CCNCC2)cn1 [Compound 558] | > 75 |
| CCOc1cn2nc(C)cc2cc1C(=O)Nc1cnc(NC2CCNCC2)cn1 [Compound 559] | > 75 |
| CCOc1cn2nc(C)cc2cc1C(=O)Nc1cnc(N2CCCNCC2)cn1 [Compound 561] | > 75 |
| CCOc1cn2nc(C)cc2cc1C(=O)Nc1cnc(NCC2C=CCN2)nc1 (stereo not shown) [Compound 562] | < 50 |
| CCOc1cn2nc(C)cc2cc1C(=O)Nc1cnc(NCCCC2CCCN2)nc1 (stereo not shown) [Compound 563] | < 50 |
| CCOc1cn2nc(C)cc2cc1C(=O)Nc1cnc(N2CCC(N)(CC)CC2)nc1 [Compound 564] | < 50 |
| CCOc1cn2nc(C)cc2cc1C(=O)Nc1cnc(NCC2CNC(C)C2)nc1 (stereo not shown) [Compound 566] | < 50 |
| CCOc1cn2nc(C)cc2cc1C(=O)Nc1cnc(NCCC2CC(F)(F)CN2)nc1 (stereo not shown) [Compound 567] | < 50 |
| CCOc1cn2nc(C)cc2cc1C(=O)Nc1cnc(N2CCC(N)(c3cccc(F)c3)C2)nc1 (stereo not shown) [Compound 568] | < 50 |
| CCOc1cn2nc(C)cc2cc1C(=O)Nc1cnc(NCC(N)c2cc(F)cc(Cl)c2)nc1 (stereo not shown) [Compound 569] | < 50 |
| CCOc1cn2nc(C)cc2cc1C(=O)Nc1cnc(NCC(N)c2ccc(F)cc2)nc1 (stereo not shown) [Compound 570] | < 50 |
| CCOc1cn2nc(C)cc2cc1C(=O)Nc1cnc(N2CC(N)C(C)(C)C2)nc1 (stereo not shown) [Compound 571] | < 50 |
| CCOc1cn2nc(C)cc2cc1C(=O)Nc1cnc(N2CCC3(CNCCO3)C2)nc1 (stereo not shown) [Compound 572] | < 50 |
| CCOc1cn2nc(C)cc2cc1C(=O)Nc1cnc(N2CCCC(C)(CN)C2)nc1 (stereo not shown) [Compound 573] | < 50 |
| CCOc1cn2nc(C)cc2cc1C(=O)Nc1cnc(N2CCCC2CNC)nc1 (stereo not shown) [Compound 574] | < 50 |
